Earlier results, collected in patent publication US20110151017A1, “OPHTHALMIC SOLUTIONS WITH IMPROVED DISINFECTION PROFILES” (priority 2009, published 2011).

Settings: aqueous solution, forming tetrahydroxyborate

- Ka: 5.8e-10 mol/L
SMILES: OB(O)O [Boric acid]
